Results reported in US9573954B2, “Pyrazolopyrimidine compounds” (University Health Network, priority 2012, dated 2017).
Where two headings read alike, the source gives them in different places.

Experiments:
[1] = tested on: colon cancer cells (HCT116); assay: Cancer cell line growth inhibition, Sulforhodamine B assay, HCT116; format: cell-based; details: Homo sapiens, HCT-116, HCT116 colon cancer cell line; read-out: Cancer Cell Line GI50 Range HCT116
Description: (§1) Breast cancer cells (MDA-MB-231 and MDA-MB-468), colon cancer cells (HCT116) and ovarian cancer cells (PA-1 and OVCAR-3) were seeded (1000 to 4000 in 80 μl per well depending on the cell growth rate) into 96 well plates 24 hours before compound overlay. Compounds were prepared as 10 mM stock solutions in 100% DMSO which were diluted with DMEM (Dulbecco's Modified Eagle's Medium) cell growth Medium (Invitrogen, Burlington, ON, Canada) containing 10% FBS (Fetal Bovine Serum) to concentrations ranging from 50 nM to 250 μM. Aliquots (20 μl) from each concentration were overlaid to 80 μl of the pre-seeded cells in the 96 well plates to make final concentrations of 10 nM to 50 μM. The cells were cultured for 5 days before the Sulforhodamine B assay (SRB) was performed to determine the compound's cell growth inhibition activity.
(§2) Sulforhodamine B (purchased from Sigma, Oakville, ON, Canada) is a water-soluble dye that binds to the basic amino acids of the cellular proteins. Thus, colorimetric measurement of the bound dye provides an estimate of the total protein mass that is related to the cell number. the cells are fixed in situ by gently aspirating off the culture media and adding 50 μl ice cold 10% Trichloroacetic Acid (TCA) per well and incubate at 4° C. for 30-60 min, The plates are washed with H2O five times and allowed to air dry for 5 min. Addition of 50 μl 0.4% (w/v) SRB solution in 1% (v/v) acetic acid to each well and incubation for 30 min at RT completes the staining reaction. Following staining, plates are washed four times with 1% acetic acid to remove unbound dye and then allowed to air dry for 5 min. The stain is solubilized with 100 μl of 10 mM Tris pH 10.5 per well. Absorbance is read at 570 nm.
(§3) The percentage (%) of relative growth inhibition was calculated by comparing to DMSO treated only cells (100%). GI50's were determined for compounds with cytotoxic activity. The GI50 was calculated using GraphPad PRISM software (GraphPad Software, Inc., San Diego, Calif., USA).
(§4) In Table 1 below, GI50 value ranges for compound examples against breast cancer cell lines (MDA-MB-468), colon cancer cell lines (HCT116) and ovarian cancer cell lines (PA-1) are given.
In Table 2 below, GI50 value ranges for compound examples against breast cancer cell lines (MDA-MB-231), colon cancer cell lines (HCT116) and ovarian cancer cell lines (PA-1) are given.
(§5) In Table 3 below, GI50 value ranges for compound examples against breast cancer cell lines (MDA-MB-468), colon cancer cell lines (HCT116) and ovarian cancer cell lines (OVCAR-3) are given.

[2] = tested on: breast cancer cells (MDA-MB-468); assay: Cancer cell line growth inhibition, Sulforhodamine B assay, MDA-MB-468; format: cell-based; details: Homo sapiens, read-out: Cancer Cell Line GI50 Range MDA-MB-468
Description: as §1, §2, §3, §4, §5

[3] = tested on: ovarian cancer cells (OVCAR-3); assay: Cancer cell line growth inhibition, Sulforhodamine B assay, OVCAR-3; format: cell-based; details: Homo sapiens, read-out: Cancer Cell Line GI50 Range OVCAR-3
Description: as §1, §2, §3, §5

[4] = biological target: T1, human TTK (Homo sapiens, UniProt P33981); assay: TTK inhibition assay (indirect ELISA); format: biochemical
T1 construct: Active TTK was purchased from Invitrogen as an amino terminal GST fusion of full length human TTK; purchased Invitrogen
T1 sequence (P33981 1-857): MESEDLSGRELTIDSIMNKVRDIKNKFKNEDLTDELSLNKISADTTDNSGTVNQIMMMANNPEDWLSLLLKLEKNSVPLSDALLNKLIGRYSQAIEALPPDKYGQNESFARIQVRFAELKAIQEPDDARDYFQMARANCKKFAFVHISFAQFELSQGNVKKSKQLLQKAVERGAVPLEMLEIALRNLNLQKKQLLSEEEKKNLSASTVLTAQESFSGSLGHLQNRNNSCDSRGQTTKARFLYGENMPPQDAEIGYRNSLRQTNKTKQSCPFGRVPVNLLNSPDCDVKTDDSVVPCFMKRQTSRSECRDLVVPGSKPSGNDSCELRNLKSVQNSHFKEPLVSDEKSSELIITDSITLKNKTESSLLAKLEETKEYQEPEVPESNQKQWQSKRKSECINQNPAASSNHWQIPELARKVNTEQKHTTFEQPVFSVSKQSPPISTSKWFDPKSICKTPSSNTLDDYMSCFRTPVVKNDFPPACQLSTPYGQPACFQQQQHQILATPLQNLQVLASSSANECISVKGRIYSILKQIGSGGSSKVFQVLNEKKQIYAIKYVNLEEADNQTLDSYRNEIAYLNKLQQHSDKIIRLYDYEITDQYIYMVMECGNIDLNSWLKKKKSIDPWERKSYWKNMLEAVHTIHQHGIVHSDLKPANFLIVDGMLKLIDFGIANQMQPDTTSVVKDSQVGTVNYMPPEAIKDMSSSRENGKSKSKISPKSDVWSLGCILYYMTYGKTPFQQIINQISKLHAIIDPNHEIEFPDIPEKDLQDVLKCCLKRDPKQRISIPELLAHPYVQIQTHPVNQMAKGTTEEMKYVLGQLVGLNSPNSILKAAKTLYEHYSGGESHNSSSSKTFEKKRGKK
Description: Active TTK was purchased from Invitrogen as an amino terminal GST fusion of full length human TTK.
TTK activity was measured using an indirect ELISA detection system.
Compounds were pre-incubated in the presence of enzyme for 5 minutes prior to addition of ATP and the activity remaining quantified using the above described activity assay. The % Inhibition of a compound was determined using the following formula; % Inhibition=100×(1−(experimental value−background value)/(high activity control−background value)). The IC50 value was determined using a non-linear 4 point logistic curve fit (XLfit4, IDBS) with the formula; (A+(B/(1+((x/C)^D)))), where A=background value, B=range, C=inflection point, D=curve fit parameter.

[5] = MDA-MB-468, MDA-MB-468 breast cancer cell line
[6] = OVCAR-3, OVCAR-3 ovarian cancer cell line
[7] = 16 μM ATP (Sigma cat# A7699), read-out: TTK IC50 Range (denoted with an asterisk)
[8] = 100 μM ATP, read-out: TTK IC50 Range
[9] = MDA-MB-468 breast cancer cell line
[10] = OVCAR-3 ovarian cancer cell line

| Compound | GI50 [1] | IC50 [4, 8] | further results |
| --- | --- | --- | --- |
| COCCNc1nc(OC2CCCC2)nc2c(-c3ccc(C(=O)NC4CC4)cc3)cnn12 [Example C8] | 100 to 500 nM | – | GI50 [2, 5]: 100 to 500 nM; GI50 [3, 6]: 100 to 500 nM; IC50 [4, 7]: < 100 nM |
| O=C(NC1CC1)c1ccc(-c2cnn3c(NCC4CCOCC4)nc(Nc4ccccc4)nc23)cc1Cl [Example C9] | > 500 nM | – | GI50 [2, 5]: > 500 nM; GI50 [3, 6]: 100 to 500 nM; IC50 [4, 7]: < 100 nM |
| CC(=O)Nc1cccc(Oc2nc(NCC3CCOCC3)n3ncc(-c4ccc(C(=O)NC5CC5)c(C)c4)c3n2)c1 [Example C19] | > 500 nM | – | GI50 [2, 5]: 100 to 500 nM; GI50 [3, 6]: > 500 nM; IC50 [4, 7]: < 100 nM |
| Cc1cc(-c2cnn3c(NCC4CCOCC4)nc(NC4CCCCC4)nc23)ccc1C(=O)NC1CC1 [Example C22] | 100 to 500 nM | – | GI50 [2, 5]: 100 to 500 nM; GI50 [3, 6]: 100 to 500 nM; IC50 [4, 7]: < 100 nM |
| Cc1cc(-c2cnn3c(NCC4CCOCC4)nc(NC4CCOCC4)nc23)ccc1C(=O)NC1CC1 [Example C23] | 100 to 500 nM | – | GI50 [2, 5]: > 500 nM; GI50 [3, 6]: > 500 nM; IC50 [4, 7]: < 100 nM |
| Cc1cc(-c2cnn3c(NCCN4CCOCC4)nc(Oc4cccc(F)c4)nc23)ccc1C(=O)NC1CC1 [Example C27] | ≤ 100 nM | – | GI50 [2, 5]: 100 to 500 nM; GI50 [3, 6]: 100 to 500 nM; IC50 [4, 7]: < 100 nM |
| Cc1cc(-c2cnn3c(NCC4CCOCC4)cc(Oc4ccc[n+]([O-])c4)nc23)ccc1C(=O)NC1CC1 [Example C30, 3-((3-(4-(cyclopropylcarbamoyl)-3-methylphenyl)-7-(((tetrahydro-2H-pyran-4-yl)methyl)amino)pyrazolo[1,5-a]pyrimidin-5-yl)oxy)pyridine-1-oxide] | > 500 nM | < 100 nM | GI50 [2, 5]: > 500 nM; GI50 [3, 6]: > 500 nM |
| O=C(NC1CC1)c1ccc(-c2cnn3c(NCCN4CCOCC4)cc(Oc4cccc(F)c4F)nc23)cc1Cl [Example C33, 2-chloro-N-cyclopropyl-4-(5-(2,3-difluorophenoxy)-7-((2-morpholinoethyl)amino)pyrazolo[1,5-a]pyrimidin-3-yl)benzamide] | ≤ 100 nM | < 100 nM | GI50 [2, 5]: ≤ 100 nM; GI50 [3, 6]: ≤ 100 nM |
| Cc1cc(-c2cnn3c(NC[C@H]4C[C@@](C)(O)C4)cc(Oc4cccnc4)nc23)ccc1C(=O)NC1CC1 [Example C43, N-cyclopropyl-4-(7-((((1s,3s)-3-hydroxy-3-methylcyclobutyl)methyl)amino)-5-(pyridin-3-yloxy)pyrazolo[1,5-a]pyrimidin-3-yl)-2-methylbenzamide] | ≤ 100 nM | – | GI50 [2, 9]: ≤ 100 nM; GI50 [3, 10]: ≤ 100 nM |
| Cc1cc(-c2cnn3c(NCC4CCOCC4)cc(NC4COC4)nc23)ccc1C(=O)NC1CC1 [Example C102] | – | < 100 nM | – |
| Cc1cc(-c2cnn3c(NCC4(N(C)C)CCOCC4)cc(Oc4ccccc4)nc23)ccc1C(=O)NC1CC1 [Example C106] | – | 100 to 500 nM | – |
| Cc1cc(-c2cnn3c(NCC4CCOCC4)cc(NC(CO)CO)nc23)ccc1C(=O)NC1CC1 [Example C110] | – | < 100 nM | – |
| Cc1cc(-c2cnn3c(NCC4CCOCC4)cc(N4C5CCC4COC5)nc23)ccc1C(=O)NC1CC1 [Example C112] | – | < 100 nM | – |
| Cc1cc(-c2cnn3c(NCC4CCOCC4)cc(OC4CCN(C5COC5)CC4)nc23)ccc1C(=O)NC1CC1 [Example C115] | – | < 100 nM | – |
| Cc1cc(-c2cnn3c(NCC4CCOCC4)cc(OCCN4CCOCC4)nc23)ccc1C(=O)NC1CC1 [Example C117] | – | < 100 nM | – |
| CC[C@H](Nc1cc(NCCN2CCOCC2)n2ncc(-c3ccc(C(=O)NC4CC4)c(C)c3)c2n1)[C@H](C)O [Example C119] | – | < 100 nM | – |
| Cc1cc(-c2cnn3c(NCC4CCOCC4)cc(NC4CCN(C5COC5)CC4)nc23)ccc1C(=O)NC1CC1 [Example C122] | – | < 100 nM | – |

| Compound | GI50 [1] | IC50 [4, 8] | further results |
| --- | --- | --- | --- |
| COC(C)(C)CNc1cc(N[C@@H](C(C)C)C(C)(C)O)nc2c(-c3ccc(C(=O)NC4CC4)c(C)c3)cnn12 [Example C128] | – | < 100 nM | – |
| COC(C)(C)CNc1cc(N[C@H]2CCC[C@H]2O)nc2c(-c3ccc(C(=O)NC4CC4)c(C)c3)cnn12 [Example C129] | – | < 100 nM | – |
| Cc1cc(-c2cnn3c(NC[C@H]4C[C@](C)(O)C4)cc(Oc4cccnc4)nc23)ccc1C(=O)NC1CC1 [Example C135] | ≤ 100 nM | – | GI50 [2, 9]: ≤ 100 nM; GI50 [3, 10]: 100 to 500 nM |
| Cc1cc(-c2cnn3c(NCCN4CCOCC4)cc(O[C@@H]4CCOC4)nc23)ccc1C(=O)NC1CC1 [Example C137] | – | < 100 nM | – |
| Cc1cc(-c2cnn3c(NCCCS(C)(=O)=O)cc(NC4CCOCC4)nc23)ccc1C(=O)NC1CC1 [Example C140] | – | < 100 nM | – |
| Cc1cc(-c2cnn3c(NCC4CCOCC4)cc(N4CC[C@@H](O)C4)nc23)ccc1C(=O)NC1CC1 [Example C142] | – | 100 to 500 nM | – |
| Cc1cc(-c2cnn3c(NCC(C)C)cc(Oc4ccncc4)nc23)ccc1C(=O)NC1CC1 [Example C149] | – | 100 to 500 nM | – |
| Cc1cc(-c2cnn3c(NCC(C)C)cc(-c4cccc5ncccc45)nc23)ccc1C(=O)NC1CC1 [Example C154] | – | 100 to 500 nM | – |
| CC(C)CNc1cc(-c2cccc3ncccc23)nc2c(-c3ccc(C(=O)NC4CC4)cc3)cnn12 [Example C155] | – | > 500 nM | – |
| Cc1cc(-c2cnn3c(NCC(C)C)cc(Nc4cccnc4)nc23)ccc1C(=O)NC1CC1 [Example C160] | – | < 100 nM | – |
| Cc1cc(-c2cnn3c(NCC4CCOCC4)cc(N4CC5(CC(O)C5)C4)nc23)ccc1C(=O)NC1CC1 [Example C162] | – | < 100 nM | – |
| Cc1cc(-c2cnn3c(NCC4CCOCC4)cc(N4CC[C@H](CO)C4)nc23)ccc1C(=O)NC1CC1 [Example C166] | – | < 100 nM | – |
| Cc1cc(-c2cnn3c(NCC4CCOCC4)cc(N4CC[C@@H](CO)C4)nc23)ccc1C(=O)NC1CC1 [Example C167] | – | < 100 nM | – |
| Cc1cc(-c2cnn3c(NCCN4CCC(O)CC4)cc(NC4CCCC4)nc23)ccc1C(=O)NC1CC1 [Example C168] | – | < 100 nM | – |
| Cc1cc(-c2cnn3c(NCCN4CCC(F)(F)CC4)cc(NC4CCCC4)nc23)ccc1C(=O)NC1CC1 [Example C184] | – | < 100 nM | – |
| Cc1cc(-c2cnn3c(NCCN4CCC(F)(F)CC4)cc(Oc4cnn(C)c4)nc23)ccc1C(=O)NC1CC1 [Example C185] | – | < 100 nM | – |
